“And” between values parts separate entries of the source, which are not always exact repeats. Identical values can stand only once.
What was measured:
Type in all cases: cell-based, corn (Zea mays)
[1] = test system: corn explants; experiment: Different cytokinins during bud induction on corn explant transformation (Table 30); conditions: for # Normal Shoot / Total # Shoot: 5,000 explants
Protocol: An experiment was conducted to evaluate the effect of using different cytokinins during bud induction on corn explant transformation. Corn explants were surface sterilized, purified, rehydrated, inoculated with Agrobacterium, co-cultured, and subjected to the bud induction (without the second extended bud induction step) and regeneration steps as described in Example 1, unless otherwise noted. Glyphosate was used as the selection agent.
In this experiment, bud induction using four cytokinins, 6-Benzylaminopurine (BAP), Zeatin, thidiazuron (TDZ) and 6-(γ,γ-dimethylallylamino)purine (2iP), was evaluated.
The shoot frequency was calculated as the number of inoculated explants producing shoots divided by the total number of inoculated explants. The normal shoot frequency was calculated as the number of normal shoots divided by the total number of inoculated explants.

[2] = test system: corn seed excised explants; experiment: Corn explant transformation: bud induction with different glyphosate concentrations, 28° C. vs 35° C. first week (Table 2)
Protocol: To evaluate the effect of elevated temperature during the initial bud induction step on transformation, two temperature treatments were evaluated using glyphosate for selection: 1) bud induction for two weeks at 28° C.; and 2) bud induction for one week at an elevated temperature of 35° C. followed by one week of bud induction at 28° C. The proceeding and subsequent steps for transformation of the corn explants in this experiment were generally performed as described in Example 1.
Following Agrobacterium inoculation and co-culture, corn explants were transferred to bud induction medium containing MS salts and B5 vitamins supplemented with 2 mg/L TDZ, 1 mg/L 2,4-D and different concentrations of glyphosate and cultured under the temperature conditions described above.
Total number shoots was calculated as the total number of shoots regenerated from inoculated explants, including both normal and chimeric shoots. The shoot frequency was calculated as the number of inoculated explants producing shoots divided by the total number of inoculated explants. […] The percentage normal shoots was calculated as the number of normal shoots divided by the total number of shoots. Normal shoot frequency was calculated as the number of normal shoots divided by the total number of inoculated explants.

[3] = test system: corn seed excised explants; experiment: 2,4-D in co-culture medium on corn explant transformation, 17 experiments (Table 32)
Protocol: Seventeen independent experiments were conducted to evaluate the effect of 2,4-D in the co-culture medium on corn explant transformation. Corn explants were surface sterilized, purified, rehydrated, inoculated with Agrobacterium, co-cultured, and subjected to bud induction, extended bud induction, and regeneration as described in Example 1, unless otherwise noted. Agrobacterium containing the same Ti plasmid as described in Example 9 was used for all experiments, except for experiments 13-17, in which two different bacterial origins of replication in the Ti-plasmid were evaluated in the presence or absence of 2,4-D in co-culture medium. In these cases, the Ti plasmids carried the same two expression cassettes flanked by T-DNA borders, one comprising the chloroplast-targeted CP4 EPSPS gene under the control of a constitutive promoter and the other comprising the uidA gene under the control of a similar constitutive promoter.
Table 32 provides a summary of results from treatments with and without 2,4-D in the co-culture medium from the 17 experiments. […] The increase in normal plant frequency ranged from 1.1 to 3.0-fold with an average increase of 1.8-fold.
(§1) The normal plant frequency was calculated as the number of normal plants divided by the total number of inoculated explants.

[4] = test system: corn seed excised explants; experiment: 2,4-D in co-culture and co-culture duration 4 vs 5 days on corn explant transformation (Tables 34, 35); conditions: for # Normal Plants / Normal Plant Frequency (%) / Shoot Frequency (%) / Total # Shoots: 2,4-D (5 mg/L) in co-culture +; for average normal plant frequency (%): 2,4-D present in co-culture (5 mg/L)
Protocol: In a separate experiment, co-culture durations of 4 days and 5 days were evaluated in combination with the presence or absence of 5 mg/L 2,4-D in the co-culture medium. Corn seed excised explants were surface sterilized, rehydrated and inoculated with an Agrobacterium suspension as described in the preceding experiment. The Agrobacterium contained a chloroplast-targeted CP4 EPSPS gene under the control of a constitutive promoter flanked by T-DNA borders on the Ti plasmid. The inoculated explants were transferred to co-culture plates with or without 5 mg/L 2,4-D and co-cultured for 4 or 5 days prior to bud induction, extended bud induction, and regeneration as described in the preceding experiment.
Furthermore, co-culture for 4 days produced a higher normal plant frequency compared to co-culture for 5 days.
The shoot frequency was calculated as the number of inoculated explants producing shoots divided by the total number of inoculated explants. The normal plant frequency was calculated as the number of normal plants divided by the total number of inoculated explants.
as §1

[5] = cytokinin 10 mg/L in bud induction
[6] = glyphosate 12.5 μM, 1st week bud induction 28° C.
[7] = glyphosate 12.5 μM, 1st week bud induction 35° C.
[8] = glyphosate 25.0 μM, 1st week bud induction 28° C.
[9] = glyphosate 25.0 μM, 1st week bud induction 35° C.
[10] = glyphosate 37.5 μM, 1st week bud induction 28° C.
[11] = glyphosate 37.5 μM, 1st week bud induction 35° C.
[12] = glyphosate 50.0 μM, 1st week bud induction 28° C.
[13] = glyphosate 50.0 μM, 1st week bud induction 35° C.
[14] = cytokinin 2 mg/L in bud induction

c1ccc(CNc2ncnc3nc[nH]c23)cc1 [BAP, 6-Benzylaminopurine]
Normal Shoot Frequency (%) [1, 5]: 1.56%
Shoot Frequency (%) [1, 5]: 5.80%
# Normal Shoot [1, 5]: 78
Total # Shoot [1, 5]: 290
bud induction ([1]; other studies, 1-8 mg/L BAP): bud induction was also observed

O=C(O)CNCP(=O)(O)O [Glyphosate, glyphosate]
Normal Shoot Frequency (%) [2, 6]: 0.36%
Normal Shoots (%) [2, 6]: 10.23%
Shoot Frequency (%) [2, 6]: 3.52%
Total # Normal Shoots [2, 6]: 9
Total # Shoots [2, 6]: 88
Normal Shoot Frequency (%) [2, 7]: 1.12%
Normal Shoots (%) [2, 7]: 14.43%
Shoot Frequency (%) [2, 7]: 7.76%
Total # Normal Shoots [2, 7]: 28
Total # Shoots [2, 7]: 194
Normal Shoot Frequency (%) [2, 8]: 0.28%
Normal Shoots (%) [2, 8]: 31.82%
Shoot Frequency (%) [2, 8]: 0.88%
Total # Normal Shoots [2, 8]: 7
Total # Shoots [2, 8]: 22
Normal Shoot Frequency (%) [2, 9]: 1.84%
Normal Shoots (%) [2, 9]: 20.91%
Shoot Frequency (%) [2, 9]: 8.8%
Total # Normal Shoots [2, 9]: 46
Total # Shoots [2, 9]: 220
Normal Shoot Frequency (%) [2, 10]: 0.2%
Normal Shoots (%) [2, 10]: 83.33%
Shoot Frequency (%) [2, 10]: 0.24%
Total # Normal Shoots [2, 10]: 5
Total # Shoots [2, 10]: 6
Normal Shoot Frequency (%) [2, 11]: 1.36%
Normal Shoots (%) [2, 11]: 22.82%
Shoot Frequency (%) [2, 11]: 5.96%
Total # Normal Shoots [2, 11]: 34
Total # Shoots [2, 11]: 149
Normal Shoot Frequency (%) [2, 12]: 0.16%
Normal Shoots (%) [2, 12]: 66.67%
Shoot Frequency (%) [2, 12]: 0.24%
Total # Normal Shoots [2, 12]: 4
Total # Shoots [2, 12]: 6
Normal Shoot Frequency (%) [2, 13]: 1.8%
Normal Shoots (%) [2, 13]: 32.61%
Shoot Frequency (%) [2, 13]: 5.52%
Total # Normal Shoots [2, 13]: 45
Total # Shoots [2, 13]: 138

O=C(Nc1ccccc1)Nc1cnns1 [TDZ, thidiazuron]
Normal Shoot Frequency (%) [1, 14]: 1.70%
Shoot Frequency (%) [1, 14]: 8.88%
# Normal Shoot [1, 14]: 85
Total # Shoot [1, 14]: 444

CC(C)=CCNc1ncnc2nc[nH]c12 [2iP, 6-(γ,γ-dimethylallylamino)purine]
Normal Shoot Frequency (%) [1, 5]: 0.06%
Shoot Frequency (%) [1, 5]: 0.14%
# Normal Shoot [1, 5]: 3
Total # Shoot [1, 5]: 7

O=C(O)COc1ccc(Cl)cc1Cl [2,4-D, 2,4-dichlorophenoxyacetic acid]
Normal Plant Frequency (%) With 2,4-D (5 mg/L) ([3]; 2,4-D 5 mg/L in co-culture medium, individual experiments 1-17, normal plants / inoculated explants): 1.10% and 1.24% and 1.48% and 0.20% and 0.60% and 2.40% and 1.70% (2×) and 4.20% and 1.50% and 0.40% (2×) and 0.70% and 0.80% and 1.40% and 1.00% and 1.56%
Normal Plant Frequency (%) With 2,4-D (5 mg/L), OVERALL ([3]; 2,4-D 5 mg/L in co-culture medium, overall of 17 experiments): 1.32%
average increase in normal plant frequency on removal of 2,4-D from the co-culture medium ([3]; 17 experiments): 1.8 fold
# Normal Plants ([4]; co-culture duration 4 days): 19 and 10
Normal Plant Frequency (%) ([4]; co-culture duration 4 days): 0.8% and 0.9%
Shoot Frequency (%) ([4]; co-culture duration 4 days): 1.5% and 1.1%
Total # Shoots ([4]; co-culture duration 4 days): 35 and 21
# Normal Plants ([4]; co-culture duration 5 days): 4
Normal Plant Frequency (%) ([4]; co-culture duration 5 days): 0.5%
Shoot Frequency (%) ([4]; co-culture duration 5 days): 1.1%
Total # Shoots ([4]; co-culture duration 5 days): 9
average normal plant frequency (%) ([4]; duration 4 days): 0.85%
average normal plant frequency (%) ([4]; duration 5 days): 0.5%
average normal plant frequency ([4]; 2,4-D present in co-culture medium (5 mg/L), 4 and 5 days): 0.73%

C/C(=C\CNc1ncnc2[nH]cnc12)CO [Zeatin]
Normal Shoot Frequency (%) [1, 14]: 0.06%
Shoot Frequency (%) [1, 14]: 0.20%
# Normal Shoot [1, 14]: 3
Total # Shoot [1, 14]: 10
